In patent US9090583B2, “Benzopyrone estrogen receptor regulator” (BEIJING SHENOGEN PHARMA GROUP LTD., priority 2010, dated 2015):
In brackets after ≈: the same amount, converted by molar mass. Read-outs that look alike come from different tables or passages of the source.

Tests used:
[1] = tested on: HL-60 cells; assay: CellTiter-Glo Luminescent Cell Viability Assay on leukemia HL-60 cells; format: cell-based, human; settings: 72 hours, read-out: Inhibition of the viability of leukemia cells, IC50
Experimental: B: In Vitro CellTiter-Glo® Luminescent Cell Viability Assay on Leukemia HL-60 Cells
(§1) The leukemia HL-60 cells were obtained from ATCC and maintained in IMDM and 10% fetal calf serum at 37° C., under 5% CO2 atmosphere. The cells were seeded on 96-well plate at a density of 6×10^3 cells per well. HL-60 cells were treated with a test compound dissolved in DMSO at the concentrations of zero, 0.3 μM, 0.5 μM, 1 μM, 2 μM, 3 μM, 5 μM, 10 μM, 20 μM, 30 μM, 50 μM and 100 μM for 72 hours. Treated cells were examined by CellTiter-Glo® Luminescent Cell Viability Assay Kit (Promega), and luminescence values were recorded with Envision.

[2] = tested on: MCF7 cells; assay: CellTiter-Glo Luminescent Cell Viability Assay on ER-positive breast cancer MCF-7 cells; format: cell-based, human; settings: average ± standard deviation when tested more than 3 times, read-out: Inhibition of the viability of breast cancer cells, IC50
Summary of the method: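 MCF7 cells (DMEM, 10% FCS, 37 °C) treated 72 h with compound at 0–100 μM (0.3, 0.5, 1, 2, 3, 5, 10, 20, 30, 50, 100 μM). Viability measured by CellTiter-Glo luminescence.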

[3] = tested on: MDA-MB-231 cells; assay: CellTiter-Glo Luminescent Cell Viability Assay on ER-negative breast cancer MDA-MB-231 cells; format: cell-based; settings: average ± standard deviation when tested more than 3 times, read-out: Inhibition of the viability of breast cancer cells, IC50
Summary of the method: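 Cells seeded at 6×10^3 per well in DMEM with 10% FCS and exposed 72 h to compound at 0 to 100 μM (twelve concentrations, DMSO vehicle). Viability measured by CellTiter-Glo luminescence.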

[4] = tested on: Molt-4 cells; assay: CellTiter-Glo Luminescent Cell Viability Assay on leukemia Molt-4 cells; format: cell-based; settings: 72 hours, read-out: Inhibition of the viability of leukemia cells, IC50
Experimental: C: In Vitro CellTiter-Glo® Luminescent Cell Viability Assay on Leukemia Molt-4 Cells
as §1, with “leukemia Molt-4” for “leukemia HL-60”, “in RPMI-1640” for “in IMDM”, “well. […]” for “well. HL-60”

[5] = tested on: SK-OV3 cells; assay: CellTiter-Glo Luminescent Cell Viability Assay on ovary cancer SK-OV3 cells; format: cell-based; settings: read-out: Inhibition of the viability of ovary cancer cells, IC50
Experimental: C: In Vitro CellTiter-Glo® Luminescent Cell Viability Assay on Ovary Cancer SK-OV3 Cells
as §1, with “ovary cancer SK-OV3” for “leukemia HL-60”, “Cancer hospital, Chinese Academy of Medical Sciences” for “ATCC”, “RPMI-1640” for “IMDM”, “SK-OV3” for “HL-60”

[6] = tested on: K562 cells; assay: CellTiter-Glo Luminescent Cell Viability Assay on leukemia K562 cells; format: cell-based, human; settings: 72 hours, read-out: Inhibition of the viability of leukemia cells, IC50
Experimental: A: In Vitro CellTiter-Glo® Luminescent Cell Viability Assay on Leukemia K562 Cells
as §1, with “K562” for “HL-60”

[7] = tested on: HO8910 cells; assay: CellTiter-Glo Luminescent Cell Viability Assay on ovary cancer HO8910 cells; format: cell-based; settings: HO-8910 cells; 72 hours; read-out: Inhibition of the viability of ovary cancer cells, IC50
Experimental: A: In Vitro CellTiter-Glo® Luminescent Cell Viability Assay on Ovary Cancer HO8910 Cells
as §1, with “Ovary cancer HO8910” for “The leukemia HL-60”, “Type Culture Collection of the Chinese Academy of Sciences, Shanghai,” for “ATCC”, “RPMI-1640” for “IMDM”, “HO8910” for “HL-60”

[8] = tested on: CoC1 cells; assay: CellTiter-Glo Luminescent Cell Viability Assay on ovary cancer CoC1 cells; format: cell-based; settings: 72 hours, read-out: Inhibition of the viability of ovary cancer cells, IC50
Experimental: B: In Vitro CellTiter-Glo® Luminescent Cell Viability Assay on Ovary Cancer CoC1 Cells
as §1, with “ovary cancer CoC1” for “leukemia HL-60”, “Cancer hospital, Chinese Academy of Medical Sciences” for “ATCC”, “RPMI-1640” for “IMDM”, “CoC1” for “HL-60”, “10” for “10 μM, 20”

[9] = tested on: Hep3B2.1-7 cells; assay: MTT assay, in vitro growth of liver cancer Hep3B2.1-7 cells; format: cell-based; settings: 72 hours; for IC50: read-out: Inhibition on liver cancer cells, IC50
Experimental: The liver cancer Hep3B2.1-7 cells were obtained from ATCC. Cells were incubated in 1640 culture medium with 5% fetal calf serum and 100 U/ml double-antibody in a cell incubator at 37° C., 5% CO2 atmosphere and passaged via conventional methods. The sample was dissolved in DMSO, formulated into 50 mg/ml stocking solution, and stored at 4° C. The test solutions at 50, 25, 12.5 and 6.25 μg/ml were formulated with culture medium immediately before use.
The adherent cells were digested with cell digestive solution, and then the exfoliated cells were collected and counted. The cell suspension was formulated with 1640 culture medium containing 5% fetal calf serum (5.0×10^4/ml). The cell suspension was seeded on 96-well plate with 100 μl/well, and maintained in a cell incubator at 37° C., 5% CO2 atmosphere for 24 hours. After that, the compounds at various concentrations were added, where solvent was taken as negative control and Taxol as positive control. 10 μl MTT (5 mg/ml) was added after 72 hours. The supernatant was removed after cultivation for 3 hours more, 150 μl DMSO was added and the formazan was dissolved on shaking. OD values were measured at 570 nm after homogeneous mixing, and inhibition rate and IC50 values were calculated based on the mean of OD values from 3 wells.

[10] = Homo sapiens, SK-OV-3, 72 hours

SMILES: COc1c(-c2cc(F)cc(F)c2)oc2c(CC=C(C)C)c(O)c(CC=C(C)C)c(O)c2c1=O [Compound 2, 2-(3,5-difluorophenyl)-5,7-dihydroxy-3-methoxy-6,8-di(3-methyl-2-buten-1-yl)-4H-benzopyran-4-one]
- IC50 ([1]; Homo sapiens): > 100 µM
- IC50 ([2]; Homo sapiens, MCF7, 72 h): 6.51 ± 1.42 µM
- IC50 ([3]; Homo sapiens, MDA-MB-231, 72 h): 11.3 ± 1.38 µM
- IC50 ([4]; Homo sapiens): > 100 µM
- IC50 [5, 10]: 7.22 µM
- IC50 ([6]; Homo sapiens): > 100 µM
- IC50 [7]: 15.7 µM
- IC50 [8]: 5.19 µM

SMILES: COc1c(-c2ccc(F)c(F)c2)oc2c(CC=C(C)C)c(O)c(CC=C(C)C)c(O)c2c1=O [Compound 4, 2-(3,4-difluorophenyl)-5,7-dihydroxy-3-methoxy-6,8-di(3-methyl-2-buten-1-yl)-4H-benzopyran-4-one]
- IC50 ([1]; Homo sapiens): 10.1 µM
- IC50 ([2]; Homo sapiens, MCF7, 72 h): 4.95 ± 0.65 µM
- IC50 ([3]; Homo sapiens, MDA-MB-231, 72 h): 6.37 ± 0.03 µM
- IC50 ([4]; Homo sapiens): 10.3 µM
- IC50 [5, 10]: 6.42 µM
- IC50 ([6]; Homo sapiens): 8.65 µM
- IC50 [9]: 1.38 µg/mL (≈ 3.02 µM)
- IC50 [7]: 14 µM

SMILES: COc1c(-c2ccc(F)cc2)oc2c(CC=C(C)C)c(O)c(CC=C(C)C)c(O)c2c1=O [Compound 7, 2-(4-fluorophenyl)-5,7-dihydroxy-3-methoxy-6,8-di(3-methyl-2-buten-1-yl)-4H-benzopyran-4-one]
- IC50 ([2]; Homo sapiens, MCF7, 72 h): 12.6 ± 0.68 µM
- IC50 ([3]; Homo sapiens, MDA-MB-231, 72 h): 10.9 ± 2.22 µM
- IC50 [5, 10]: > 100 µM
- IC50 [9]: 1.09 µg/mL (≈ 2.49 µM)
- IC50 [7]: 21.6 µM
- IC50 [8]: > 100 µM

SMILES: COc1c(-c2ccc(F)c(Cl)c2)oc2c(CC=C(C)C)c(O)c(CC=C(C)C)c(O)c2c1=O [Compound 8, 2-(3-chloro-4-fluorophenyl)-5,7-dihydroxy-3-methoxy-6,8-di(3-methyl-2-butylene-1-yl)-4H-benzopyran-4-one]
- IC50 [1]: 17.9 µM
- IC50 ([2]; 72 hours): 8.58 ± 0.24 µM
- IC50 ([3]; 72 hours): 9.96 ± 1.97 µM
- IC50 [4]: 15.3 µM
- IC50 ([5]; 72 hours): 24.3 µM
- IC50 [6]: 12.8 µM
- Inhibition on liver cancer cells, IC50 [9]: 1.46 µg/mL
- IC50 [7]: 22.3 µM
- IC50 [8]: 11.8 µM

SMILES: COc1c(-c2cncs2)oc2c(CC=C(C)C)c(O)c(CC=C(C)C)c(O)c2c1=O [Compound 25, 2-(thiazol-5-yl)-5,7-dihydroxy-3-methoxy-6,8-di(3-methyl-2-buten-1-yl)-4H-benzopyran-4-one]
- IC50 ([1]; Homo sapiens): > 100 µM
- IC50 ([2]; Homo sapiens, MCF7, 72 h): 9.19 ± 2.47 µM
- IC50 ([3]; Homo sapiens, MDA-MB-231, 72 h): 17.3 ± 6.5 µM
- IC50 ([4]; Homo sapiens): > 100 µM
- IC50 [5, 10]: 12.6 µM
- IC50 ([6]; Homo sapiens): > 100 µM
- IC50 [7]: > 100 µM
- IC50 [8]: 14.3 µM

SMILES: COc1ccc(-c2oc3c(CC=C(C)C)c(O)c(CC=C(C)C)c(O)c3c(=O)c2OC)cn1 [Compound 26, 2-(6-methoxypyridin-3-yl)-5,7-dihydroxy-3-methoxy-6,8-di(3-methyl-2-buten-1-yl)-4H-benzopyran-4-one]
- IC50 ([2]; Homo sapiens, MCF7, 72 h): 11 ± 1.34 µM
- IC50 ([3]; Homo sapiens, MDA-MB-231, 72 h): 12.8 ± 1.78 µM
- IC50 [5, 10]: 40.1 µM
- IC50 [7]: 24.3 µM
- IC50 [8]: 17.8 µM

SMILES: COc1cc(-c2oc3c(CC=C(C)C)c(O)c(CC=C(C)C)c(O)c3c(=O)c2OC)ccn1 [Compound 27, 2-(2-methoxypyridin-4-yl)-5,7-dihydroxy-3-methoxy-6,8-di(3-methyl-2-buten-1-yl)-4H-benzopyran-4-one]
- IC50 ([2]; Homo sapiens, MCF7, 72 h): 6.17 ± 0.05 µM
- IC50 ([3]; Homo sapiens, MDA-MB-231, 72 h): 10.3 ± 0.56 µM
- IC50 [5, 10]: 7.23 µM
- IC50 [7]: 17.6 µM
- IC50 [8]: 9.23 µM

SMILES: COc1c(-c2ccc(F)c(F)c2)oc2c(CC=C(C)C)c(O)c(CC=C(C)C)c(OC)c2c1=O [Compound 83, 2-(3,4-difluorophenyl)-7-hydroxy-3,5-dimethoxy-6,8-di(3-methyl-2-buten-1-yl)-4H-benzopyran-4-one]
- IC50 ([1]; Homo sapiens): > 100 µM
- IC50 ([2]; Homo sapiens, MCF7, 72 h): 10.6 ± 3.06 µM
- IC50 ([3]; Homo sapiens, MDA-MB-231, 72 h): 11.3 ± 0.86 µM
- IC50 ([4]; Homo sapiens): > 100 µM
- IC50 ([6]; Homo sapiens): > 100 µM

SMILES: COc1c(-c2ccc(Cl)c(F)c2)oc2c(CC=C(C)C)c(O)c(CC=C(C)C)c(OC)c2c1=O [Compound 84, 2-(3-fluoro-4-chlorophenyl)-7-hydroxy-3,5-dimethoxy-6,8-di(3-methyl-2-buten-1-yl)-4H-benzopyran-4-one]
- IC50 ([2]; Homo sapiens, MCF7, 72 h): 6.89 µM
- IC50 ([3]; Homo sapiens, MDA-MB-231, 72 h): 13.5 µM
- IC50 [5, 10]: 15.7 µM
- IC50 [7]: 23.4 µM
- IC50 [8]: 23.4 µM

SMILES: COc1ccc(-c2cc(=O)c3c(O)c(CC=C(C)C)c(O)c(CC=C(C)C)c3o2)cc1Cl [Compound 90, 2-(3-chloro-4-trimethoxyphenyl)-5,7-dihydroxy-6,8-di(3-methyl-2butylene-1-yl)-4H-benzopyran-4-one]
- IC50 ([2]; 72 hours): 8.98 µM
- IC50 ([3]; 72 hours): 10.7 ± 1.38 µM
- IC50 ([5]; 72 hours): > 100 µM
- IC50 [7]: > 100 µM
- IC50 [8]: > 100 µM
